Where two headings read alike, the source gives them in different places.
Experiments:
[1] = biological target: 18S ribosomal subunit RNA target; assay: Mass spectrometry based binding assay (FTICR), 18S
Summary of the method: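 Ligands at varying concentrations were mixed with 2.5 or 5 μM RNA in 100 mM ammonium acetate with 33% isopropyl alcohol, then analysed by negative-mode ESI-FTICR. Complex/free RNA ion ratios plotted against ligand concentration were fitted to a second- or higher-order binding polynomial to give KD.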

[2] = biological target: 16S ribosomal subunit RNA target; assay: Mass spectrometry based binding assay (FTICR), 16S
Summary of the method: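 Binding to the 16S ribosomal subunit RNA target was measured by FTICR mass spectrometry. Ligands or ligand mixtures were prepared at several concentrations in 10 μL of aqueous 100 mM ammonium acetate buffer with 33% isopropyl alcohol. Samples were infused at 1 μL/min into a negative-mode electrospray source, and ions were held 1 sec in an RF-only hexapole. Complex/free RNA ratios versus ligand concentration were fitted to a binding polynomial to obtain KD.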

[3] = system: E. coli S30 bacterial extract (pBestLuc firefly luciferase reporter); assay: Coupled bacterial transcription/translation assay; assay type: biochemical; settings: read-out: Trans/Trans IC50
Summary of the method: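 Coupled transcription/translation of firefly luciferase from 1 μg pBestLuc (tac promoter) in E. coli S30 extract, with or without test compound. Reaction 35 min at 37° C., then functional luciferase detected by luminescence.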

E. Coli = assay: MIC, E. Coli; assay type: cell-based
Summary of the method: (§1)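 Broth microdilution in duplicate, 150 μL: overnight-culture bacteria were added to compound in 4% DMSO in water. Final inoculum was about 10^5–10^6 CFU/well.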

S. Aureus = assay: MIC, S. Aureus; assay type: cell-based
Summary of the method: as §1

E. coli ATCC 25922 = assay: MIC, E. coli ATCC 25922; assay type: cell-based
Procedure: (§2) The MIC assays are carried out in 150 μL volume in duplicate in 96-well clear flat-bottom plates. The bacterial suspension from an overnight culture growth in appropriate medium is added to a solution of test compound in 4% DMSO in water. Final bacterial inoculum is approximately 10^5-10^6 CFU/well. […] Both ampicillin and tetracycline are used as antibiotic-positive controls in each screening assay for S. pyogenes, E. coli imp-, E. coli, S. aureus, E. faecalis, K. pneumoniae and P. vulgaris. Ciprofloxacin is used as an antibiotic positive control in each screening assay for P. aeruginosa.
(§3) The following compounds were prepared using methods illustrated in the previous examples. The compounds were also examined in standard bacterial assays against E. Coli, S. Aureus, P. aurginosa, K. pneumoniae, P. vulgaris, and A. baumannii to determine activities. Each of the bacterial cultures that are available from ATCC (www.atcc.org) is identified by its ATCC number. A. baumannii is gentamicin sensitive Acinetobacter baumannii #2 from Walter Reed.

S. aureus ATCC 13709 = assay: MIC, S. aureus ATCC 13709; assay type: cell-based
Procedure: as §2, §3

P. aurginosa ATCC 25416 = assay: MIC, P. aurginosa ATCC 25416; assay type: cell-based
Procedure: as §2, §3

P. aurginosa ATCC 29248 = assay: MIC, P. aurginosa ATCC 29248; assay type: cell-based
Procedure: as §2, §3

K. pneumoniae ATCC 10031 = assay: MIC, K. pneumoniae ATCC 10031; assay type: cell-based
Procedure: as §2, §3

P. vulgaris ATCC 8427 = assay: MIC, P. vulgaris ATCC 8427; assay type: cell-based
Procedure: as §2, §3

[4] = system: gentamicin sensitive Acinetobacter baumannii #2 from Walter Reed; assay: MIC, A. baumannii WReed 2; assay type: cell-based
Procedure: as §2, §3

[5] = system: Staphylococcus aureus (Smith Strain ATCC 13709); assay: Staphylococcus aureus mouse protection assay; assay type: in vivo, mice; settings: for # Dead mice/Total mice in group: Staph Conc. 10^6, 10% Mucin
[6] = Example 110, listed as 9p - sample 1
[7] = Example 110, listed as 9p - sample 2

SMILES: NCC1OC(OC2C(CO)OC(OC3C(O)C(N)CC(N)C3OC3OC(CO)C(O)C(O)C3N)C2OCCNCCc2ccccc2)C(N)C(O)C1O (stereo not drawn) [Compound 9p]
- Kd ([1]; FTICR mass spectrometry, Example 105): 1300 nM
- Kd ([2]; FTICR mass spectrometry, run at 100 nM RNA, Example 105): 100 nM
- IC50 ([3]; Example 105): 1100 nM
- MIC E. Coli. (E. Coli; Example 105): 3 to 6 µM
- MIC S. Aureus (S. Aureus; Example 105): 0.3 to 0.6 µM
- MIC E. coli ATCC 25922 (E. coli ATCC 25922; [6]): 5 to 10 µM
- MIC E. coli ATCC 25922 (E. coli ATCC 25922; [7]): >40 µM
- MIC E. coli ATCC 25922 (E. coli ATCC 25922; Example 111): 5 to 10 µM
- MIC S. aureus ATCC 13709 (S. aureus ATCC 13709; [6]): 10 to 20 µM
- MIC S. aureus ATCC 13709 (S. aureus ATCC 13709; [7]): 1.2 to 2.5 µM
- MIC S. aureus ATCC 13709 (S. aureus ATCC 13709; Example 111): 0.6 to 1.3 µM
- MIC P. aurginosa ATCC 25416 (P. aurginosa ATCC 25416; Example 110): >40 µM
- MIC P. aurginosa ATCC 25416 (P. aurginosa ATCC 25416; Example 111): >40 µM
- MIC P. aurginosa ATCC 29248 (P. aurginosa ATCC 29248; Example 110): >40 µM
- MIC P. aurginosa ATCC 29248 (P. aurginosa ATCC 29248; Example 111): >40 µM
- MIC K. pneumoniae ATCC 10031 (K. pneumoniae ATCC 10031; [6]): 1.3 to 2.5 µM
- MIC K. pneumoniae ATCC 10031 (K. pneumoniae ATCC 10031; [7]): >40 µM
- MIC K. pneumoniae ATCC 10031 (K. pneumoniae ATCC 10031; Example 111): 2.5-5^ uM
- MIC P. vulgaris ATCC 8427 (P. vulgaris ATCC 8427; [6]): 2.5-5^ uM
- MIC P. vulgaris ATCC 8427 (P. vulgaris ATCC 8427; [7]): 20 to 40 µM
- MIC P. vulgaris ATCC 8427 (P. vulgaris ATCC 8427; Example 111): >40 µM
- MIC A. baumannii WReed 2 [4, 6]: 2.5-5^ uM
- MIC A. baumannii WReed 2 [4, 7]: >40 µM
- MIC A. baumannii WReed 2 ([4]; Example 111): >40 µM
- # Dead mice/Total mice in group ([5]; 0.1 mg/kg in PBS pH=7.4, the 14th table): 5/10 (10% Mucin)
- # Dead mice/Total mice in group ([5]; 0.5 mg/kg in PBS pH=7.4, the 14th table): 0/10 (10% Mucin)
- # Dead mice/Total mice in group ([5]; 1 mg/kg in PBS pH=7.4, the 14th table): 0/10 (10% Mucin)
- # Dead mice/Total mice in group ([5]; 2 mg/kg in PBS pH=7.4, the 14th table): 0/10 (10% Mucin)
- # Dead mice/Total mice in group ([5]; 4.5 mg/kg in PBS pH=7.4, the 14th table): 0/10 (10% Mucin)
- # Dead mice/Total mice in group ([5]; 9 mg/kg in PBS pH=7.4, the 14th table): 0/10 (10% Mucin)
- # Dead mice/Total mice in group ([5]; 18 mg/kg in PBS pH=7.4, the 14th table): 0/10 (10% Mucin)
- # Dead mice/Total mice in group ([5]; 37 mg/kg in PBS pH=7.4, the 14th table): 0/10 (10% Mucin)
- # Dead mice/Total mice in group ([5]; 75 mg/kg in PBS pH=7.4, the 14th table): 0/10 (10% Mucin)
- # Dead mice/Total mice in group ([5]; […] in PBS pH=7.4, the 14th table): 1/10 (10% Mucin)
- smallest protective dose ([5]; protective at doses as small as, summary of the 14th table): 0.25 mg/kg
- prevention of lethal bacterial infections in mice ([5]; result in words, summary of the 14th table): effective at preventing lethal bacterial infections in mice

SMILES: NCC1OC(OC2C(CO)OC(OC3C(O)C(N)CC(N)C3OC3OC(CNCCc4ccccc4)C(O)C(O)C3N)C2O)C(N)C(O)C1O (stereo not drawn) [Compound 15j]
- Kd ([1]; Example 108): 2200 nM
- Kd ([2]; Example 108): 500 nM
- IC50 ([3]; Example 108): 200 nM
- MIC E. Coli. (E. Coli; Example 108): 1.3 to 2.5 µM
- MIC S. Aureus (S. Aureus; Example 108): 0.3 to 0.6 µM
- MIC E. coli ATCC 25922 (E. coli ATCC 25922; Example 110): 1.3 to 2.5 µM
- MIC E. coli ATCC 25922 (E. coli ATCC 25922; Example 111): 1.3 to 2.5 µM
- MIC S. aureus ATCC 13709 (S. aureus ATCC 13709; Example 110): 10 to 20 µM
- MIC S. aureus ATCC 13709 (S. aureus ATCC 13709; Example 111): 0.3 to 0.6 µM
- MIC P. aurginosa ATCC 25416 (P. aurginosa ATCC 25416; Example 110): >40 µM
- MIC P. aurginosa ATCC 25416 (P. aurginosa ATCC 25416; Example 111): >40 µM
- MIC P. aurginosa ATCC 29248 (P. aurginosa ATCC 29248; Example 110): >40 µM
- MIC P. aurginosa ATCC 29248 (P. aurginosa ATCC 29248; Example 111): >40 µM
- MIC K. pneumoniae ATCC 10031 (K. pneumoniae ATCC 10031; Example 110): <0.6 µM
- MIC K. pneumoniae ATCC 10031 (K. pneumoniae ATCC 10031; Example 111): 0.6 to 1.3 µM
- MIC P. vulgaris ATCC 8427 (P. vulgaris ATCC 8427; Example 110): 1.3 to 2.5 µM
- MIC P. vulgaris ATCC 8427 (P. vulgaris ATCC 8427; Example 111): >40 µM
- MIC A. baumannii WReed 2 ([4]; Example 110): 1.3 to 2.5 µM
- MIC A. baumannii WReed 2 ([4]; Example 111): 20 to 40 µM
- # Dead mice/Total mice in group ([5]; 0.5 mg/kg subcutaneously, the 13th table): 7/10
- # Dead mice/Total mice in group ([5]; 1 mg/kg subcutaneously, the 13th table): 0/10
- # Dead mice/Total mice in group ([5]; 2 mg/kg subcutaneously, the 13th table): 0/10
- # Dead mice/Total mice in group ([5]; 4.5 mg/kg subcutaneously, the 13th table): 0/10
- # Dead mice/Total mice in group ([5]; 9 mg/kg subcutaneously, the 13th table): 0/10
- # Dead mice/Total mice in group ([5]; 18 mg/kg subcutaneously, the 13th table): 0/10
- # Dead mice/Total mice in group ([5]; 37 mg/kg subcutaneously, the 13th table): 0/10
- # Dead mice/Total mice in group ([5]; 75 mg/kg subcutaneously one and 3 hour after infection, intraperitoneal, the 13th table): 0/10
